Measurements published in ChEMBL document CHEMBL5046285, “Probing Fluorinated Motifs onto Dual AChE-MAO B Inhibitors: Rational Design, Synthesis, Biological Evaluation, and Early-ADME Studies” (J Med Chem, 2022).
Values after ≈ are worked out from the molar mass of the structure shown.

Assays:
[1] = Chromatographic hydrophobicity index of the compound in ammonium acetate buffer at pH 7.4 by RP-HPLC analysis; format: physicochemical
[2] = Microsomal stability in mouse liver microsomes assessed as half life at 0.5 uM incubated upto 30 mins in presence of NADPH by LC/MS/MS analysis; format: ADME, Microsome
[3] = Intrinsic clearance in mouse liver microsomes at 0.5 uM incubated upto 30 mins in presence of NADPH measured per mg protein by LC/MS/MS analysis; format: ADME, Microsome; details: read-out: CLH
[4] = Kinetic aqueous solubility of the compound in PBS incubated for 2 hrs under mild shaking at pH 7.4 by UV- vis spectrophotometric analysis; format: physicochemical; details: read-out: Kinetic_solubility
[5] = 1-Octanol/PBS buffer distribution coefficient, log D of the compound at 1 uM measured after 24 hrs at pH 7.4 by shake flask based HPLC-ES-MS/MS analysis; format: physicochemical
[6] = system: HepG2; experiment: Cytotoxicity against human HepG2 cells assessed as reduction in cell viability at 1 to 100 uM incubated for 4 hrs by CellTiter-Glo luminescence assay; format: toxicity, cell-based; details: hepg2, 4 h, dose 1-100 µM
[7] = target: Acetylcholinesterase (Homo sapiens, UniProt P22303)
Description: Inhibition of human recombinant AChE by Ellman's spectrophotometric assay

[8] = Effective permeability of the compound in PBS buffer at pH 7.4 by PAMPA-BBB assay; format: ADME; details: read-out: Peff
[9] = system: SH-SY5Y; experiment: Cytotoxicity against human SH-SY5Y cells assessed as reduction in cell viability at 1 to 100 uM incubated for 4 hrs by CellTiter-Glo luminescence assay; format: toxicity, cell-based; details: dose 1-100 µM
[10] = target: T1, Amine oxidase [flavin-containing] B (Homo sapiens, UniProt P27338)
T1 sequence (P27338 whole entry): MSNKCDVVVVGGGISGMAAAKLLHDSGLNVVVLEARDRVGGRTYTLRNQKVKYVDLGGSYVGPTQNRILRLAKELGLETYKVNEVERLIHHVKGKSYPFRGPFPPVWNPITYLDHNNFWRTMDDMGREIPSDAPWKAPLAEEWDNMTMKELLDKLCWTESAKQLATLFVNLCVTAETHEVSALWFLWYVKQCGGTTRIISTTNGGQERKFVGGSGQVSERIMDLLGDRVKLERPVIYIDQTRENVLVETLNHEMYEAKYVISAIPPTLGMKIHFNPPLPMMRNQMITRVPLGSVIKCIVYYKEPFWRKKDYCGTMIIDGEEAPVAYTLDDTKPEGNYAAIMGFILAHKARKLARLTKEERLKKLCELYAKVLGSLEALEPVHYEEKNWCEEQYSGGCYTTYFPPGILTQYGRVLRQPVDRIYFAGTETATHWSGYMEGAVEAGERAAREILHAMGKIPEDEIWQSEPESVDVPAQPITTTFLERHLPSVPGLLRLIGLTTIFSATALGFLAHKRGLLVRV
Description: Inhibition of human recombinant MAO-B expressed in supersomes assessed as inhibition of 4-hydroxyquinoline formation using kynuramine as substrate by spectrofluorimetric analysis

[11] = target: T1, Amine oxidase [flavin-containing] B; experiment: Inhibition of human recombinant MAO-B expressed in supersomes assessed as inhibition of 4-hydroxyquinoline formation using kynuramine as substrate by spectrophotometric method
[12] = target: T2, Amine oxidase [flavin-containing] A (Homo sapiens, UniProt P21397)
T2 sequence (P21397 whole entry): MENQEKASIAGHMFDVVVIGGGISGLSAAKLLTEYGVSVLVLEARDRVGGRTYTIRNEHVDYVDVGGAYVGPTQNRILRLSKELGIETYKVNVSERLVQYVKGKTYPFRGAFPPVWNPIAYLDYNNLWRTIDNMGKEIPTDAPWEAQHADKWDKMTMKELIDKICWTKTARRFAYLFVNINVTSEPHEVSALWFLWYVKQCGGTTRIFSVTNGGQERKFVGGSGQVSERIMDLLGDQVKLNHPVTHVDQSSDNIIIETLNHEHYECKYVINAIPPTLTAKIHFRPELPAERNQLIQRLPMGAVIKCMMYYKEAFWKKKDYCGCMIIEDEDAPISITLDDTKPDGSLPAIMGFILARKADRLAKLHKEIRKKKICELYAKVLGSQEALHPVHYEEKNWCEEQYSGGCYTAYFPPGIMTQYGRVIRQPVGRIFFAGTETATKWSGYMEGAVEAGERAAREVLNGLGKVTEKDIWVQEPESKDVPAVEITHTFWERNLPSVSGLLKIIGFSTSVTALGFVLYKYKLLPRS
Description: Inhibition of human recombinant MAO-A expressed in supersomes assessed as inhibition of 4-hydroxyquinoline formation using kynuramine as substrate by spectrofluorimetric analysis

[13] = target: Cholinesterase (Equus caballus, UniProt P81908)
Description: Inhibition of horse serum BChE by Ellman's spectrophotometric assay

[14] = Apparent permeability across apical to basolateral side in human Caco-2 cells at 10 uM incubated for 60 mins by HPLC-MS/MS method; format: ADME, cell-based
[15] = Efflux ratio of apparent permeability across basolateral to apical side over apical to basolateral side in human Caco-2 cells; format: ADME, cell-based
[16] = Apparent permeability across basolateral to apical side in human Caco-2 cells at 10 uM incubated for 60 mins by HPLC-MS/MS method; format: ADME, cell-based
[17] = target: Cholinesterase (Equus caballus) (UniProt P81908); experiment: Inhibition of horse serum BChE at 10 uM by Ellman's spectrophotometric assay; format: cell-free
[18] = target: Cytochrome P450 3A4 (Homo sapiens, UniProt P08684); experiment: Inhibition of human recombinant CYP3A4 expressed in baculosomes by fluorescent homogenous assay; format: ADME
[19] = target: T3, MAO-A (Homo sapiens, UniProt P21397); experiment: in vitro; details: recombinant MAO-A expressed in supersomes, probe kynuramine
T3 sequence (P21397 whole entry): T2 sequence (P21397 whole entry)

[20] = organism: Homo sapiens; experiment: Selectivity for human recombinant MAO-B expressed in supersomes over human recombinant MAO-A expressed in supersomes
[21] = Microsomal stability in human liver microsomes assessed as half life at 0.5 uM incubated upto 60 mins in presence of NADPH by LC/MS/MS analysis; format: ADME, Microsome
[22] = Intrinsic clearance in human liver microsomes at 0.5 uM incubated upto 60 mins in presence of NADPH measured per mg protein by LC/MS/MS analysis; format: ADME, Microsome; details: read-out: CLH

Cholinesterase, sequence (P81908 whole entry): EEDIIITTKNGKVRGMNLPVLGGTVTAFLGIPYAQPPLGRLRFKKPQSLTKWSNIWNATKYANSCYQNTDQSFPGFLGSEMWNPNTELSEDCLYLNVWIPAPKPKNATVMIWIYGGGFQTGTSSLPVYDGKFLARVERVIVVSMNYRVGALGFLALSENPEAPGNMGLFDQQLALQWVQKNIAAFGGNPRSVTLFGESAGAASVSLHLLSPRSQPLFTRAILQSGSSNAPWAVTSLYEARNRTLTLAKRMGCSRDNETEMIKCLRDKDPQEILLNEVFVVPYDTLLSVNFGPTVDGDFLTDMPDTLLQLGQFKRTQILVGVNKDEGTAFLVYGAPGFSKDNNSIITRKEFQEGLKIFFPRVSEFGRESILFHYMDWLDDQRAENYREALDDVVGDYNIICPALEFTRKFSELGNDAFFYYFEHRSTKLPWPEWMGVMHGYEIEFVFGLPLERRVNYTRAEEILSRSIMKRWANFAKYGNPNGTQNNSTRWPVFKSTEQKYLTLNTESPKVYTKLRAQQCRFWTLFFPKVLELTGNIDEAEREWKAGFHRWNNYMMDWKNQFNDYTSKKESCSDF
Cholinesterase (Equus caballus), sequence (P81908 whole entry): as above
Acetylcholinesterase, sequence (P22303 whole entry): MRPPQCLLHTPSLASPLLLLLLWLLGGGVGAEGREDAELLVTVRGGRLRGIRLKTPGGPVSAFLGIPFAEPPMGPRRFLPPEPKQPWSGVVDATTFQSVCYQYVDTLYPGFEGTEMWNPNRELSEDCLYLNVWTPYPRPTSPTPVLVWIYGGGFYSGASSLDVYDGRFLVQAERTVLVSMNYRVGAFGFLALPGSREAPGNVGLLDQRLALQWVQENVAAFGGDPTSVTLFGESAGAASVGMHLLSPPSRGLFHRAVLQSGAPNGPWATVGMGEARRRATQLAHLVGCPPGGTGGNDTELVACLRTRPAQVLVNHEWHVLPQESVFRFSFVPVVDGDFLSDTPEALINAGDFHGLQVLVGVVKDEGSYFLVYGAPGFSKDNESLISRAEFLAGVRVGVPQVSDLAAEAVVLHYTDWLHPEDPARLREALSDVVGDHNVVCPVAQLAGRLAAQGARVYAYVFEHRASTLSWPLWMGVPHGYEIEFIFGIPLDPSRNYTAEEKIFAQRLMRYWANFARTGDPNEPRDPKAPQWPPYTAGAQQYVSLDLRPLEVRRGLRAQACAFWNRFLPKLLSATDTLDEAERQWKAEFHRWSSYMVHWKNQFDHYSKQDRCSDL
Cytochrome P450 3A4, sequence (P08684 whole entry): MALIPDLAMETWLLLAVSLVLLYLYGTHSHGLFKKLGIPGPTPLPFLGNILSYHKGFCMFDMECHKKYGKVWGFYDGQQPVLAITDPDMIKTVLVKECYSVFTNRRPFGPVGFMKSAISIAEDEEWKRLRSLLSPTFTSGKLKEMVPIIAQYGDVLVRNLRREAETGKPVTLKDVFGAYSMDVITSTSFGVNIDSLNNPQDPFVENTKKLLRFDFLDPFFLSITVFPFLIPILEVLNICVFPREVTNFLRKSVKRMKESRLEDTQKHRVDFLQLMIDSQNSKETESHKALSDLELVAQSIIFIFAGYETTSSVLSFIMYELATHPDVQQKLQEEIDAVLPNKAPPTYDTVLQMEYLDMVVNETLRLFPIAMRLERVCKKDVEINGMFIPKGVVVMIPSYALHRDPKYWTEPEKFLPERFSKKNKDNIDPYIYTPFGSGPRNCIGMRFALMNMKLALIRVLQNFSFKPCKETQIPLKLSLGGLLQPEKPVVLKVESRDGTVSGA

| SMILES | CHI [1] | half-life at 0.5 µM [2] | microsomal CLint at 0.5 µM [3] | solubility kinetic at 2 h [4] | logD at 24 h, 1 µM [5] | IC50 [7] | Papp [8] | IC50 [10] | IC50 [12] | IC50 [13] | inhibition [17] | further results |
| --- | --- | --- | --- | --- | --- | --- | --- | --- | --- | --- | --- | --- |
| Cc1c(C)c2ccc(OCC3CCCN(Cc4ccccc4)C3)cc2oc1=O (racemic) | > 100 | 5.3 min | 265 µL/min/mg | 33 µM (≈ 12.5 µg/mL) | 3.65 |  |  |  |  |  |  |  |
| Cc1c(C)c2ccc(OCC3CCCN(CCCO)C3)cc2oc1=O (racemic) | 48.8 | 92.4 min | 15.1 µL/min/mg | > 500 µM | 1.15 | 1100 nM | 7.2 ×10⁻⁶ cm/s |  |  |  |  | Activity [6]: Non-Toxic; Activity [9]: Non-Toxic |
| Cc1c(C)c2ccc(OCC3CCN(Cc4cccc(F)c4)CC3)cc2oc1=O | > 100 | 6.2 min | 225 µL/min/mg | 11 µM (≈ 4.35 µg/mL) | 3.43 | 460 nM |  | 140 nM | 2500 nM | 2900 nM |  | inhibition (INH) [11]: Active |
| Cc1c(C)c2ccc(OCC3CCN(Cc4ccccc4)CC3)cc2oc1=O | 99.7 | 6.7 min | 206 µL/min/mg | 57 µM (≈ 21.5 µg/mL) | 3.4 | 380 nM |  |  |  |  |  | Papp A→B at 1 h, 10 µM [14]: 7 ×10⁻⁶ cm/s; efflux ratio [15]: 1.6; Papp B→A at 1 h, 10 µM [16]: 12 ×10⁻⁶ cm/s |
| CN(Cc1ccccc1)Cc1ccc(COc2ccc3c(CO)cc(=O)oc3c2)cc1 | 99.3 | 31.7 min | 43.9 µL/min/mg |  | 3.81 |  |  |  |  |  |  |  |
| Cc1c(C)c2ccc(OCCCN(Cc3cccc(F)c3)C(C)C)cc2oc1=O | > 100 |  |  | 13 µM (≈ 5.17 µg/mL) |  | 910 nM |  | 350 nM | 8100 nM |  | 22% | inhibition (INH) [11]: Active |
| Cc1c(C)c2ccc(OCC3CCN(Cc4cccc(C(F)(F)F)c4)CC3)cc2oc1=O | > 100 | 9.5 min | 146 µL/min/mg | 0.9 µM (≈ 0.401 µg/mL) | 5.05 | 470 nM |  | 130 nM | 1400 nM |  | 35% |  |
| Cc1c(C)c2ccc(OCc3cccc(CN(C)CCCC(F)F)c3)cc2oc1=O | > 100 | 4.8 min | 289 µL/min/mg | 13 µM (≈ 5.4 µg/mL) | 3.65 | 1700 nM |  | 560 nM | 4200 nM | 1600 nM |  | IC50 [18]: 600 nM |
| Cc1c(C)c2ccc(OCC3CCCN(Cc4cccc(F)c4)C3)cc2oc1=O (racemic) | > 100 | 6.6 min | 210 µL/min/mg | 20 µM (≈ 7.91 µg/mL) | 4.38 | 1200 nM | 10 ×10⁻⁶ cm/s | 12 nM | 2000 nM | 2000 nM |  |  |
| CN(CCCO)Cc1ccc(COc2ccc3c(CO)cc(=O)oc3c2)cc1 | 35.6 |  |  | > 500 µM |  | 2200 nM | 3.1 ×10⁻⁶ cm/s | 420 nM |  |  | 27% | inhibition at 10 µM [19]: 13% |
| Cc1c(C)c2ccc(OCc3ccc(CN(C)CCCC(F)F)cc3)cc2oc1=O | > 100 |  |  | 13 µM (≈ 5.4 µg/mL) | 3.78 | 1500 nM |  | 160 nM |  | 4100 nM |  | inhibition at 10 µM [19]: 45% |
| CN(Cc1ccccc1)Cc1ccc(COc2ccc3c(C(F)F)cc(=O)oc3c2)cc1 | > 100 | 9.8 min | 142 µL/min/mg | 0.4 µM (≈ 0.174 µg/mL) | 4.8 | 560 nM |  | 130 nM |  | 430 nM |  | inhibition at 10 µM [19]: 17%; Selectivity Index [20]: > 73 |
| Cc1c(C)c2ccc(OCC3CCN(CCCC(F)F)CC3)cc2oc1=O | 73.4 | 11.9 min | 116 µL/min/mg | 448 µM (≈ 170 µg/mL) | 2.34 | 1200 nM | 10.8 ×10⁻⁶ cm/s | 530 nM |  |  | 8% | IC50 [18]: 800 nM; Papp A→B at 1 h, 10 µM [14]: 17 ×10⁻⁶ cm/s; inhibition at 10 µM [19]: 40%; half-life at 0.5 µM [21]: 98.9 min; efflux ratio [15]: 1; Papp B→A at 1 h, 10 µM [16]: 16 ×10⁻⁶ cm/s; microsomal CLint at 0.5 µM [22]: 14.1 µL/min/mg |
| CCN(CCCOc1ccc2c(C)c(C)c(=O)oc2c1)Cc1cccc(F)c1 | > 100 | 5.3 min | 260 µL/min/mg | 18 µM (≈ 6.9 µg/mL) |  | 1200 nM |  | 73 nM | 7800 nM | 4300 nM |  |  |
| Cc1c(C)c2ccc(OCC3CCCN(CCCC(F)F)C3)cc2oc1=O (racemic) | 83.4 | 17.8 min | 78.1 µL/min/mg | 349 µM (≈ 132 µg/mL) | 2.67 | 480 nM | 13.3 ×10⁻⁶ cm/s | 260 nM | 11000 nM |  | 22% | IC50 [18]: > 10000 nM |
